Here are results for four compounds from ChEMBL document CHEMBL1122767, “Synthesis, resolution, absolute stereochemistry, and enantioselectivity of 3',4'-dihydroxynomifensine” (J Med Chem, 1984).

For one experiment, the target named is D(2) dopamine receptor (Rattus norvegicus, UniProt P61169). Nature of the experiment: Concentration that produces 50 % displacement of specific [3H]spiroperidol binding to rat caudate membrane preparations.
In experiment [1] the target is T1, cyclic AMP phosphoprotein (Rattus norvegicus, UniProt Q712U5).
T1 sequence (Q712U5 whole entry): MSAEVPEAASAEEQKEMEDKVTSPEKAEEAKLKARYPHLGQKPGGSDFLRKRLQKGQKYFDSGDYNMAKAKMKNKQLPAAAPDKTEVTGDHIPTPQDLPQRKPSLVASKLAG
In words: Effective concentration that gives maximal stimulation of cyclic AMP production over the concentration range tested; b=Inactive. The experiment is classed as functional.

Experiment [2] in a line: Concentration that produces 50 % displacement of specific [3H]clonidine binding to Alpha adrenergic receptor in rat brain cortical membrane preparations. The experiment is classed as cell membranes.

pIC50: −log10 of the molar value.

Sequence of D(2) dopamine receptor (P61169 whole entry): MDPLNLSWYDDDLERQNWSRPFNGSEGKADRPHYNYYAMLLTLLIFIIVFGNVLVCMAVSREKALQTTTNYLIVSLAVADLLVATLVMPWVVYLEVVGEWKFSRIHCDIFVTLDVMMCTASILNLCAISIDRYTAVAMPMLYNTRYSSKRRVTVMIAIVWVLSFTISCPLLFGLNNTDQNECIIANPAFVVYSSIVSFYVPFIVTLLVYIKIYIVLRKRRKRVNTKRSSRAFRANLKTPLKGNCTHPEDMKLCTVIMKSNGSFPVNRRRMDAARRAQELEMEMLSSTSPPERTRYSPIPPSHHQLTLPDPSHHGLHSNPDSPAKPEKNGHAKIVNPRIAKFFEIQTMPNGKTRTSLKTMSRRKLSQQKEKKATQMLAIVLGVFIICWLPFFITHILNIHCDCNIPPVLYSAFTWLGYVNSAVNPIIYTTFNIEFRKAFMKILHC

In general, pIC50 refers to the IC50 on a negative log10 scale, so that one unit is a factor of ten. Low values mean a high IC50, high ones a low IC50. As for `CN1Cc2c(N)cccc2[C@@H](c2ccc(O)c(O)c2)C1`, the pIC50 at D(2) dopamine receptor is 4.00; in experiment [2] it was 4.56. The EC50 entry in experiment [1] is given as “Not Active”.
Consider `CN1Cc2c(N)cccc2C(c2ccc(O)c(O)c2)C1` (stereo not drawn), for which the pIC50 is 4.04 on D(2) dopamine receptor and 5.86 in experiment [2].
In turn, `NCCc1ccc(O)c(O)c1` [DOPAMINE] gave a pIC50 in experiment [2] of 7.21.
In the case of `CN1Cc2c(N)cccc2[C@H](c2ccc(O)c(O)c2)C1`, the pIC50 on D(2) dopamine receptor was 4.07; in experiment [2] it was 6.22.
